According to ChEMBL document CHEMBL1155077, “Kinesin spindle protein (KSP) inhibitors. 9. Discovery of (2S)-4-(2,5-difluorophenyl)-n-[(3R,4S)-3-fluoro-1-methylpiperidin-4-yl]-2-(hydroxymethyl)-N-methyl-2-phenyl-2,5-dihydro-1H-pyrrole-1-carboxamide (MK-0731) for the treatment of taxane-refractory cancer” (J Med Chem, 2008):
The source made the active and inactive calls. The calls are words filed in the database; no cut-off is given here.

Key:
Kinesin-1 heavy chain = biological target: T1, Kinesin-1 heavy chain (Homo sapiens, UniProt P33176); assay: Inhibition of cloned human uKHC
T1 sequence (P33176 whole entry): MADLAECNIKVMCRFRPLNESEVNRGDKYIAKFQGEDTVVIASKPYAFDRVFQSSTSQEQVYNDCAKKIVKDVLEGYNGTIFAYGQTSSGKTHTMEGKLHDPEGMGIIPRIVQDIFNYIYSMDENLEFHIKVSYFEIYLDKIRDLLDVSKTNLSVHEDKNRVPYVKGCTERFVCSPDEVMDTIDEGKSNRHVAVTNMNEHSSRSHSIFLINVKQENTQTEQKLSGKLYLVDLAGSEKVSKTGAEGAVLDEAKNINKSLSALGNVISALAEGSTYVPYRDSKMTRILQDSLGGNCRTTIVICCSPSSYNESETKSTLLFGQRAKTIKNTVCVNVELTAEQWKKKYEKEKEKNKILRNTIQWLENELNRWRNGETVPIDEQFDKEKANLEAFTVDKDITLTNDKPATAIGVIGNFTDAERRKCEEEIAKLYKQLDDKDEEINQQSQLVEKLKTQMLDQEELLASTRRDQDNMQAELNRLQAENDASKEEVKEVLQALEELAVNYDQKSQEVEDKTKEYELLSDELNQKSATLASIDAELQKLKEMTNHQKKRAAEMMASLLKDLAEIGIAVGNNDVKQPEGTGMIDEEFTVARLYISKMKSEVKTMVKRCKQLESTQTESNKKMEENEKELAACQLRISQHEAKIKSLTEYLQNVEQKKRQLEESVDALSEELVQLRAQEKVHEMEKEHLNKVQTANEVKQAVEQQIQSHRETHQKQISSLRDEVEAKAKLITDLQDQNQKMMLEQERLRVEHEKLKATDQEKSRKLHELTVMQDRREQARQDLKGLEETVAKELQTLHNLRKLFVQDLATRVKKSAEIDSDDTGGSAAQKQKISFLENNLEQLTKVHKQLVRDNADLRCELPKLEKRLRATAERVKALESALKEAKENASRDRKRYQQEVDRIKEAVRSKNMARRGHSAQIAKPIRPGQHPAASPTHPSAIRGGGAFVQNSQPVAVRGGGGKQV

KB-v = assay: Inhibition of tumor growth in human KB-v cells expressing MDR1 xenografted clr:NU/NU-nuBR mouse assessed as change in tumor volume at 40 mg/kg, sc administered qd x 1 dosing schedule relative to control

In the case of CN1CC[C@H](N(C)C(=O)N2CC(c3cc(F)ccc3F)=C[C@@]2(CO)c2ccccc2)[C@H](F)C1, the IC50 (Kinesin-1 heavy chain) is reported as over 50 µM and the Activity (KB-v) is reported as “Active”.
